Test results as given in US8039513B2, “Cis-1,2-substituted stilbene derivatives and their use in preparation of drugs for treatment and/or prevention of diabetes” (Institute of Radiation Medicine, Academy of Military …, priority 2004, dated 2011).

How the values were obtained:
[1] = tested on: mice with glucose-induced hyperglycemia; assay: Hypoglycemic effect of orally administered compounds in mice with glucose-induced hyperglycemia; type: in vivo, Kun Ming male mice; conditions: glucose 2 g/10 ml/kg orally 15 min later, fasted mice
Protocol: In the following biological experiments, the hypoglycemic activity of the above compounds was chiefly observed in hyperglycemic mice. Taking 3,3′,5′-trihydroxy-4′-methoxystilbene-3-O-β-D-glucoside (rhaponticin) as a positive control drug, the hypoglycemic activity of these compounds were preliminarily evaluated.
Kun Ming male mice (certification: Medical Animal No. D01-3023) with body weight of 21-33 g were used in the experiments. After fasting and feeding water for 16 hours, the compounds were administered to the mice. The candidate compounds were formulated with dimethyl sulfoxide (2.5 ml/kg), and administered to the mice intragastrically. After fifteen minutes, glucose (2 g/10 ml/kg) was administered orally. One hour later, one drop of blood was collected by cutting a segment of tail and the blood sugar level was monitored with a blood sugar monitor manufactured by Johnson Company, USA, by using a test paper containing glucose oxidase. For the mice of the control group, dimethyl sulfoxide ([…]) and glucose (2 g/10 ml/kg) were given intragastrically.

[2] = Table 1, 400 mg/kg intragastrically, DMSO control 9.50 ± 1.06
[3] = Table 2, 400 mg/kg intragastrically, DMSO control 8.53 ± 0.76
[4] = Table 3, 400 mg/kg intragastrically, DMSO control 7.80 ± 1.33

| Compound | Blood sugar level one hour after administration M ± SD [1, 2] [mmol/L] | Blood sugar level one hour after administration M ± SD [1, 3] [mmol/L] | also measured |
| --- | --- | --- | --- |
| COc1ccc(/C=C/c2cc(O)cc(O[C@@H]3O[C@H](CO)[C@@H](O)[C@H](O)[C@H]3O)c2)cc1O [rhaponticin, 3,3′,5′-trihydroxy-4′-methoxystilbene-3-O-β-D-glucoside, reference compound] | 9.14 ± 1.90 | – | Blood sugar level one hour after administration M ± SD ([1]; Table 1, 800 mg/kg intragastrically, DMSO control 9.50 ± 1.06): 7.02 ± 1.01 mmol/L |
| COc1cc(/C=C(/C(=O)NC2CCCCC2)c2ccccc2)ccc1OC(C)=O [Example 6, cis-2-phenyl-3-(3-methoxy-4′-acetoxy-phenyl)-N-cyclohexyl acrylamide] | – | 5.46 ± 0.86 | – |
| COc1cc(C=C(C(=O)N[C@H]2CC[C@@H](C)CC2)c2ccccc2)ccc1OC(C)=O [Example 8, cis-2-phenyl-3-(3′-methoxy-4′-acetoxy-phenyl)-N-(4-methylcyclohexyl)acrylamide] | – | – | Blood sugar level one hour after administration M ± SD ([1]; Table 3, 100 mg/kg intragastrically, DMSO control 7.80 ± 1.33): 5.61 ± 1.67 mmol/L; melting point: 136 to 140 °C |
| COC(=O)/C(=C/c1ccc(OC)c(OC)c1)c1ccccc1 [Example 9, cis-2-phenyl-3-(3′,4′-dimethoxy-phenyl)-methyl acrylate] | – | – | Blood sugar level one hour after administration M ± SD [1, 4]: 8.41 ± 0.88 mmol/L |
| COc1cc(/C=C\c2ccccc2)ccc1O [Example 1, cis-1-phenzyl-2-(3′-methoxy-4′-hydroxy-phenyl)ethene] | 7.62 ± 1.59 | – | – |
| COc1ccc(/C=C(/C(=O)O)c2ccccc2)cc1OC(C)=O [Example 2, cis-2-phenyl-3-(3′-acetoxy-4′-methoxy-phenyl)acrylic acid] | 8.20 ± 0.99 | – | – |
| COc1ccc(/C=C(/C(=O)O)c2ccccc2)cc1C(=O)O [Example 5, cis-2-phenyl-3-(3′-carboxy-4′-methoxy-phenyl)acrylic acid] | – | 8.50 ± 1.01 | – |
| COc1cc(C=C(C(=O)NCc2ccco2)c2ccccc2)ccc1OC(C)=O [Example 7, cis-2-phenyl-3-(3′-methoxy-4′-acetoxy-phenyl)-N-(methylenefuran)acrylamide] | – | – | Blood sugar level one hour after administration M ± SD [1, 4]: 6.95 ± 0.61 mmol/L |
| COc1cc(/C=C(/C(=O)O)c2ccccc2)ccc1OC(C)=O [Example 3, cis-2-phenyl-3-(3′-methoxy-4′-acetoxy-phenyl)acrylic acid] | 7.30 ± 0.68 | 7.85 ± 0.16 | – |
| COc1cc(/C=C(/C(=O)O)c2ccccc2)ccc1O [Example 4, cis-2-phenyl-3-(3′-methoxy-4′-hydroxy-phenyl)acrylic acid] | – | 7.30 ± 2.21 | – |
